Among the data in the Kinase Knowledgebase extract (Sharma et al. 2016) are IC50 values, retold here.

Sequence of EGFR (human) (P00533 whole entry, looked up): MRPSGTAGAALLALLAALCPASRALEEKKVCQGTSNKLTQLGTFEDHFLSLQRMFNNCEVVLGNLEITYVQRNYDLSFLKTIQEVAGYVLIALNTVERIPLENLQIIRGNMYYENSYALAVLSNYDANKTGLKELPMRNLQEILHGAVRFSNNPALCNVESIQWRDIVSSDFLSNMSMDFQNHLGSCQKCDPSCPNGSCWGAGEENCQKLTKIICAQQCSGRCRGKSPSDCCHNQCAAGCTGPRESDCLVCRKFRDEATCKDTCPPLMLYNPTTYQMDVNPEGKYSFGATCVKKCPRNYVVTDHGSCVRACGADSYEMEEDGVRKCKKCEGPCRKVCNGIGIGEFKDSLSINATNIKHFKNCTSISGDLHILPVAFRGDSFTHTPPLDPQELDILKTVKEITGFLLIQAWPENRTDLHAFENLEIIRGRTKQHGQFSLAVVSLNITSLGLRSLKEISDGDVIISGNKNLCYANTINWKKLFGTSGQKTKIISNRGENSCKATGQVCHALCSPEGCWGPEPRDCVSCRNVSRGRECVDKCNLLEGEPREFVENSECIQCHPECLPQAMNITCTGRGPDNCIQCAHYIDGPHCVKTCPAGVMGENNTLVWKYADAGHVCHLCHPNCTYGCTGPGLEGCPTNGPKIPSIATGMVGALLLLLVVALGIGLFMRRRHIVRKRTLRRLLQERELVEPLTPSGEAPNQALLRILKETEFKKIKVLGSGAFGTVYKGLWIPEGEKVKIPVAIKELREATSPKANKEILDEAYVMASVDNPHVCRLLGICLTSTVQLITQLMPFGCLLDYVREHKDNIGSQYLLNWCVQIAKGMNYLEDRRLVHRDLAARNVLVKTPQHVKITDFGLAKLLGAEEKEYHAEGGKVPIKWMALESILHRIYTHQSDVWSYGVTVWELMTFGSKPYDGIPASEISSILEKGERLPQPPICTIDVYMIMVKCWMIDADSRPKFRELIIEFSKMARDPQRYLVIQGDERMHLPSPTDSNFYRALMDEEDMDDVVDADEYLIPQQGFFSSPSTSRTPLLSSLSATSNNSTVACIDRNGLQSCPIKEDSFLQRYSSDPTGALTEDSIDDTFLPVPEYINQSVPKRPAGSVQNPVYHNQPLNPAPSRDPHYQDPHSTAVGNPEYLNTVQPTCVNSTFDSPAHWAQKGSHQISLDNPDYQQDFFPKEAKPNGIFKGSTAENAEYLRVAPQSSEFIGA

This assay has as its target EGFR (human) (UniProt P00533). The note with it: a431.
Broadly, the IC50 is the point on the concentration scale where inhibition reaches its midpoint. A low value points to higher potency. Regarding `Cc1c(C=C2C(=O)Nc3cccc(-c4c(F)cccc4F)c32)[nH]c2c1C(=O)N(CCN1CCCCC1)CC2`, the half-inhibitory concentration (IC50) is 530 nM.

In turn, `CCN(CC)CCN1CCc2[nH]c(C=C3C(=O)Nc4cccc(Br)c43)c(C)c2C1=O` gave a half-inhibitory concentration (IC50) of 330 nM.

In turn, `CCN(CC)CCN1CCc2[nH]c(C=C3C(=O)Nc4ccc(-c5ccc(OC)cc5)cc43)c(C)c2C1=O` registered a half-inhibitory concentration (IC50) of 3890 nM.

On to `Cc1c(C=C2C(=O)Nc3cccc(C4CCNCC4)c32)[nH]c2c1C(=O)N(CCN1CCCC1)CC2`, for which the IC50 is 590 nM.

For `CCN(CC)CCN1CCc2[nH]c(C=C3C(=O)Nc4cccc(CCO)c43)c(C)c2C1=O`, the IC50 was 3850 nM.

For `Cc1c(C=C2C(=O)Nc3c(Br)cc(F)cc32)[nH]c2c1C(=O)N(CCN1CCCCC1)CC2`, the concentration for half-maximal inhibition (IC50) came out at 270 nM.

For the molecule `CCN(CC)CCN1CCc2[nH]c(C=C3C(=O)Nc4ccc(F)cc43)c(C)c2C1=O`, the half-maximal inhibitory concentration (IC50) was found to be 1090 nM.

Consider `Cc1c(C=C2C(=O)Nc3cc(NCc4ccc(F)cc4)c(F)cc32)[nH]c2c1C(=O)N(CCN1CCCCC1)CC2`, for which the IC50 stood at 340 nM.

The molecule `Cc1c(C=C2C(=O)Nc3ccc(NC=O)cc32)[nH]c2c1C(=O)N(CCN1CCCCC1)CC2` showed a 50% inhibitory concentration (IC50) of 120 nM.

On to `CCN(CC)CCN1CCc2[nH]c(C=C3C(=O)Nc4ccc(Br)cc43)c(C)c2C1=O`, for which the half-maximal inhibitory concentration (IC50) worked out at 1260 nM.

On to `Cc1c(C=C2C(=O)Nc3ncc(Br)cc32)[nH]c2c1C(=O)N(CCN1CCOCC1)CC2`, for which the IC50 was 15900 nM.

The molecule `CCN(CC)CCN1CCc2[nH]c(C=C3C(=O)Nc4cccc(C5CCNCC5)c43)c(C)c2C1=O` came in with an IC50 of 350 nM.

Molecule `O=C(CO)Nc1cc2c(cc1F)C(=Cc1[nH]c3c(c1-c1ccc(F)cc1)C(=O)NCC3)C(=O)N2` returned an IC50 of 3060 nM.

`CCN(CC)CCN1CCc2[nH]c(C=C3C(=O)Nc4cc(NC(C)=O)c(F)cc43)c(C)c2C1=O` came in with a 50% inhibitory concentration (IC50) of 9290 nM.

Regarding `Cc1c(C=C2C(=O)Nc3cccc(-c4cccc(F)c4)c32)[nH]c2c1C(=O)N(CCN1CCCCC1)CC2`, the IC50 was 180 nM.

Consider `Cc1c(C=C2C(=O)Nc3cccc(CCO)c32)[nH]c2c1C(=O)N(CCN1CCCC1)CC2`, for which the 50% inhibitory concentration (IC50) stood at 1680 nM.

In the case of `CCN(CC)CCN1CCc2[nH]c(C=C3C(=O)Nc4ncnc(Nc5ccc(F)c(Cl)c5)c43)c(C)c2C1=O`, the IC50 was 67 nM.

Regarding `Cc1c(C=C2C(=O)Nc3cc(NC(=O)CO)c(F)cc32)[nH]c2c1C(=O)N(CCN1CCCCC1)CC2`, the IC50 is 1250 nM.

As for `CCN(CC)CCN1CCc2[nH]c(C=C3C(=O)Nc4cc(N)c(F)cc43)c(C)c2C1=O`, the 50% inhibitory concentration (IC50) amounted to 10500 nM.

Consider `CCN(CC)CCN1CCc2[nH]c(C=C3C(=O)Nc4cccc(-c5cccc(Cl)c5F)c43)c(C)c2C1=O`, for which the IC50 was found to be 7320 nM.

The molecule `CCN(CC)CCN1CCc2[nH]c(C=C3C(=O)Nc4c(NC(C)=O)cc(F)cc43)c(C)c2C1=O` registered a half-inhibitory concentration (IC50) of 1380 nM.

For `COCC(=O)Nc1cc2c(cc1F)C(=Cc1[nH]c3c(c1-c1ccc(F)cc1)C(=O)NCC3)C(=O)N2`, the 50% inhibitory concentration (IC50) was 2030 nM.

With `Cc1c(C=C2C(=O)Nc3cccc(Br)c32)[nH]c2c1C(=O)N(CCN1CCCC1)CC2`, the IC50 came to 200 nM.

As to `Cc1c(C=C2C(=O)Nc3ccc(NS(C)(=O)=O)cc32)[nH]c2c1C(=O)N(CCN1CCOCC1)CC2`, the IC50 amounted to 2850 nM.

Take `Cc1c(C=C2C(=O)Nc3cc(N)c(F)cc32)[nH]c2c1C(=O)N(CCN1CCCC1)CC2`: the concentration for half-maximal inhibition (IC50) is 10700 nM.

Molecule `CCN(CC)CCN1CCc2[nH]c(C=C3C(=O)Nc4ccc(NC=O)cc43)c(C)c2C1=O` showed a concentration for half-maximal inhibition (IC50) of 840 nM.

The molecule `Cc1c(C=C2C(=O)Nc3cccc(-c4cccc(Cl)c4F)c32)[nH]c2c1C(=O)N(CCN1CCCC1)CC2` returned a half-inhibitory concentration (IC50) of 13800 nM.

`Cc1c(C=C2C(=O)Nc3ccc(F)cc32)[nH]c2c1C(=O)N(CCN1CCCC1)CC2` registered a half-maximal inhibitory concentration (IC50) of 1310 nM.

In turn, `Cc1c(C=C2C(=O)Nc3cccc(-c4cccc(Cl)c4F)c32)[nH]c2c1C(=O)N(CCN1CCOCC1)CC2` displayed an IC50 of 6110 nM.

`CCN(CC)CCN1CCc2[nH]c(C=C3C(=O)Nc4ccc(Cl)cc43)c(C)c2C1=O` showed a half-inhibitory concentration (IC50) of 1040 nM.

`CCN(CC)CCN1CCc2[nH]c(C=C3C(=O)Nc4c(NC=O)cc(F)cc43)c(C)c2C1=O`: the IC50 was 1380 nM.

On to `Cc1c(C=C2C(=O)Nc3cccc(C4CCNCC4)c32)[nH]c2c1C(=O)N(CCN1CCOCC1)CC2`, for which the half-inhibitory concentration (IC50) was found to be 1900 nM.

Take `CCN(CC)CCN1CCc2[nH]c(C=C3C(=O)Nc4cccc(-c5ccc(Cl)cc5F)c43)c(C)c2C1=O`: the IC50 is 3230 nM.

For the molecule `CCN(CC)CCN1CCc2[nH]c(C=C3C(=O)Nc4ccc(OC)cc43)c(C)c2C1=O`, the IC50 was 4350 nM.

`CCN(CC)CCN1CCc2[nH]c(C=C3C(=O)Nc4cccc(-c5cccc(F)c5F)c43)c(C)c2C1=O` came in with a concentration for half-maximal inhibition (IC50) of 380 nM.

The molecule `Cc1c(C=C2C(=O)Nc3cccc(-c4cccc(F)c4F)c32)[nH]c2c1C(=O)N(CCN1CCCC1)CC2` registered a half-inhibitory concentration (IC50) of 2190 nM.

In turn, `CCN(CC)CCN1CCc2[nH]c(C=C3C(=O)Nc4c(N)cc(F)cc43)c(C)c2C1=O` came in with an IC50 of 12600 nM.

For the molecule `Cc1c(C=C2C(=O)Nc3ccc(F)cc32)[nH]c2c1C(=O)N(CCN1CCOCC1)CC2`, the 50% inhibitory concentration (IC50) is 1350 nM.

On to `Cc1c(C=C2C(=O)Nc3ccc(Cl)cc32)[nH]c2c1C(=O)N(CCN1CCOCC1)CC2`, for which the IC50 stood at 10200 nM.

The molecule `Cc1c(C=C2C(=O)Nc3ncc(Br)cc32)[nH]c2c1C(=O)N(CCN1CCCCC1)CC2` displayed a 50% inhibitory concentration (IC50) of 1660 nM.

`CCN(CC)CCN1CCc2[nH]c(C=C3C(=O)Nc4cc(NC=O)c(F)cc43)c(C)c2C1=O` registered a half-inhibitory concentration (IC50) of 370 nM.

`Cc1c(C=C2C(=O)Nc3cccc(CCO)c32)[nH]c2c1C(=O)N(CCN1CCOCC1)CC2` gave an IC50 of 16500 nM.

Molecule `Cc1c(C=C2C(=O)Nc3ncnc(Nc4ccc(F)c(Cl)c4)c32)[nH]c2c1C(=O)N(CCN1CCOCC1)CC2` yielded an IC50 of 330 nM.
